Data as given in paper PMC4450297, “Screening Active Compounds from Garcinia Species Native to China Reveals Novel Compounds Targeting the STAT/JAK Signaling Pathway” (BioMed Research International, 2015).

Legend:
Assay in all cases: Cell panel screen (CellTiter-Glo)
Assay type in all cases: cell-based, human
A498 = A498 (listed under Lung), 20 micromolar, 72 hrs
Description: (§1) All cells were obtained from the cell bank of the American Type Culture Collection (ATCC) and cultured in the supplier's recommended media supplemented with 10% FBS. The cell panel screen was measured using the CellTiter-Glo assay (Promega, Madison, WI) following a standard protocol. Briefly, cancer cells were seeded in 96-well plates and cultured overnight at 37°C with or without 5% CO2 in an incubator. Each compound was dissolved with limited DMSO and diluted to a certain concentration with culture medium and then added to the corresponding well of the cell plate. The final concentration of compound was 20 μM. The control cells (without treatment) received the same amount of DMSO and were incubated under the same conditions. After 72 h cultivation, 100 μL of the CellTiter-Glo reagent was added directly to each well for 10-minute incubation. The plate was then read on a FlexStation 3 microplate luminometer (Molecular Devices, USA) to monitor the luminescence signal generated by the luciferase-catalyzed reaction of luciferin and ATP. The percent of growth inhibition was calculated using the following formula: (untreated cells − treated cells)/(untreated cells − background without cells) ∗ 100.

A704 = A704 (Kidney), 20 micromolar, 72 hrs
Description: as §1

BT-474 = BT-474 (Breast), 20 micromolar, 72 hrs
Description: as §1

BT-549 = BT-549 (Breast), 20 micromolar, 72 hrs
Description: as §1

Bel-7402 = Bel-7402 (Liver), 20 micromolar, 72 hrs
Description: as §1

C3A = C3A (Liver), 20 micromolar, 72 hrs
Description: as §1

C8166 = C8166 (Leukemia), 20 micromolar, 72 hrs
Description: as §1

CCF-STTG1 = CCF-STTG1 (Brain), 20 micromolar, 72 hrs
Description: as §1

CW-2 = CW-2 (Colon), 20 micromolar, 72 hrs
Description: as §1

ChaGo-K-1 = ChaGo-K-1 (Lung), 20 micromolar, 72 hrs
Description: as §1

Colo 205 = conditions: Colo 205, 20 micromolar, 72 hrs
Description: as §1

HCC1395 = HCC1395 (Breast), 20 micromolar, 72 hrs
Description: as §1

HCC1569 = HCC1569 (Breast), 20 micromolar, 72 hrs
Description: as §1

HCC1599 = HCC1599 (Breast), 20 micromolar, 72 hrs
Description: as §1

HCC1937 = HCC1937 (Breast), 20 micromolar, 72 hrs
Description: as §1

HEC-1-A = HEC-1-A (Uterus), 20 micromolar, 72 hrs
Description: as §1

HGC-27 = HGC-27 (Stomach), 20 micromolar, 72 hrs
Description: as §1

HPAF-II = HPAF-II (Pancreas), 20 micromolar, 72 hrs
Description: as §1

HT-1197 = HT-1197 (Urinary bladder), 20 micromolar, 72 hrs
Description: as §1

J82 = J82 (Urinary bladder), 20 micromolar, 72 hrs
Description: as §1

M059J = M059J (Brain), 20 micromolar, 72 hrs
Description: as §1

MSTO-211-H = MSTO-211-H (Lung), 20 micromolar, 72 hrs
Description: as §1

NCI-H1623 = NCI-H1623 (Lung), 20 micromolar, 72 hrs
Description: as §1

NCI-H1694 = NCI-H1694 (Lung), 20 micromolar, 72 hrs
Description: as §1

NCI-H1770 = NCI-H1770 (Lung), 20 micromolar, 72 hrs
Description: as §1

NCI-H2347 = NCI-H2347 (Lung), 20 micromolar, 72 hrs
Description: as §1

NCI-H2405 = NCI-H2405 (Lung), 20 micromolar, 72 hrs
Description: as §1

NCI-H28 = NCI-H28 (Lung), 20 micromolar, 72 hrs
Description: as §1

NCI-H524 = NCI-H524 (Lung), 20 micromolar, 72 hrs
Description: as §1

Panc 03.27 = Panc 03.27 (Pancreas), 20 micromolar, 72 hrs
Description: as §1

RL95 = RL95 (Uterus), 20 micromolar, 72 hrs
Description: as §1

SW13 = SW13 (Adrenal gland), 20 micromolar, 72 hrs
Description: as §1

T47D = T47D (Breast), 20 micromolar, 72 hrs
Description: as §1

T98G = T98G (Brain), 20 micromolar, 72 hrs
Description: as §1

TCCSUP = TCCSUP (Urinary bladder), 20 micromolar, 72 hrs
Description: as §1

ZR-75-30 = ZR-75-30 (Breast), 20 micromolar, 72 hrs
Description: as §1

SMILES	Percent Inhibition (A498)	Percent Inhibition (A704)	Percent Inhibition (BT-474)	Percent Inhibition (BT-549)	Percent Inhibition (Bel-7402)	Percent Inhibition (C3A)	Percent Inhibition (C8166)	Percent Inhibition (CCF-STTG1)	Percent Inhibition (CW-2)	Percent Inhibition (ChaGo-K-1)	Percent Inhibition (Colo 205)	Percent Inhibition (HCC1395)	Percent Inhibition (HCC1569)	Percent Inhibition (HCC1599)	Percent Inhibition (HCC1937)	Percent Inhibition (HEC-1-A)	Percent Inhibition (HGC-27)	Percent Inhibition (HPAF-II)	Percent Inhibition (HT-1197)	Percent Inhibition (J82)	further results
CC(C)=CCc1c(O)cc2oc3cc(O)c(O)c(CC=C(C)C)c3c(=O)c2c1O [Ge9]	98%	96%	97%	97%	99%	81%	99%	99%	99%	97%	98%	98%	97%	95%	98%	95%	97%	96%	97%	97%	Percent Inhibition (M059J): -17%; Percent Inhibition (MSTO-211-H): 98%; Percent Inhibition (NCI-H1623): 91%; Percent Inhibition (NCI-H1694): 99%; Percent Inhibition (NCI-H1770): 98%; Percent Inhibition (NCI-H2347): 89%; Percent Inhibition (NCI-H2405): 96%; Percent Inhibition (NCI-H28): 97%; Percent Inhibition (NCI-H524): 97%; Percent Inhibition (Panc 03.27): 97%; Percent Inhibition (RL95): 98%; Percent Inhibition (SW13): -3%; Percent Inhibition (T47D): 94%; Percent Inhibition (T98G): 98%; Percent Inhibition (TCCSUP): 99%; Percent Inhibition (ZR-75-30): 99%
COc1cc(O)c2c(=O)c3c(CC=C(C)C)cc(O)c(O)c3oc2c1CC=C(C)CCC=C(C)C [Go-23]	94%	96%	70%	96%	96%	77%	95%	87%	97%	94%	96%	97%	97%	98%	96%	76%	97%	82%	96%	97%	Percent Inhibition (M059J): 93%; Percent Inhibition (MSTO-211-H): 95%; Percent Inhibition (NCI-H1623): 92%; Percent Inhibition (NCI-H1694): 98%; Percent Inhibition (NCI-H1770): 98%; Percent Inhibition (NCI-H2347): 68%; Percent Inhibition (NCI-H2405): 98%; Percent Inhibition (NCI-H28): 82%; Percent Inhibition (NCI-H524): 98%; Percent Inhibition (Panc 03.27): 92%; Percent Inhibition (RL95): 97%; Percent Inhibition (SW13): 96%; Percent Inhibition (T47D): 94%; Percent Inhibition (T98G): 98%; Percent Inhibition (TCCSUP): 93%; Percent Inhibition (ZR-75-30): 95%
COc1cc(O)c2c(=O)c3cc4c(c(O)c3oc2c1CC=C(C)C)OC(C)(C)C=C4 [gl-12]	11%	3%	-2%	-2%	5%	7%	25%	16%	28%	38%	10%	22%	19%	52%	-7%	13%	34%	21%	20%	17%	Percent Inhibition (M059J): 27%; Percent Inhibition (MSTO-211-H): -5%; Percent Inhibition (NCI-H1623): 5%; Percent Inhibition (NCI-H1694): 28%; Percent Inhibition (NCI-H1770): 34%; Percent Inhibition (NCI-H2347): 9%; Percent Inhibition (NCI-H2405): 11%; Percent Inhibition (NCI-H28): 2%; Percent Inhibition (NCI-H524): -2%; Percent Inhibition (Panc 03.27): 24%; Percent Inhibition (RL95): 23%; Percent Inhibition (SW13): -2%; Percent Inhibition (T47D): 21%; Percent Inhibition (T98G): 28%; Percent Inhibition (TCCSUP): 11%; Percent Inhibition (ZR-75-30): 54%
